This is an account of results in US5206241A, “Labdanes and process for their preparation” (Hoechst Aktiengesellschaft, priority 1990, dated 1993).

Assay [1] concerns intraocular pressure (IOP) in conscious rabbits. Description: Measurement of the intraocular pressure in conscious rabbits. The class given is in vivo, rabbit. As to conditions: 2% solution, 100 μl into one eye; for IOP-Lowering Effect, % decrease in IOP: Schioetz tonometer, relative to initial value; for IOP-Lowering Effect, Duration: unit of duration not given. Here is the method:
For this experiment rabbits of both sexes and weighin 2 to 3 kg are used. The intraocular pressure (IOP) is measured with a Schioetz tonometer after corneal anaesthesia with a 2% novocaine solution. A 2% solution of a compound according to the invention is prepared, using the stoichiometric amount of 0.1N HCl, by dissolving it or its salt directly in water. After the initial value has been determined, 100 μl of the solution of the test compound are […] into one of the eyes, and the vehicle is instilled into the other eye. The IOP is measured at defined time intervals, i.e. 0.5, 1, 2, 3, 4 and 5 hours. The percentage decreases in the IOP is calculated using the initial value.

Another assay concerns Guinea pig atrium. Description: Positive inotropic activity, electrically stimulated isolated guinea pig atrium. As to conditions: contractility of isolated atrium, Ringer's solution, 32° C., recorded 7 to 10 minutes; for EC50: Cavia porcellus. Here is the method: Guinea pigs of both sexes and weighing 400 g are sacrificed, and the heart is removed and placed in Ringer's solution at room temperature. Both the left and the right atria are then isolated, fixed in an organ holder and placed in a bath containing Ringer's solution and maintained at a temperature of 32° C. A mixture of 95% O2 and 5% CO2 is bubbled through the organ bath. Electrical stimulation of the atrium is then carried out. A compound according to the invention is dissolved in water to give a solution of known concentration and is added to the bath. The contractility of the atrium is recorded for 7 to 10 minutes via an […] strain gage on a Nihon Kohden 4-channel pen recorder. The activity is expressed on the basis of the resulting data as the EC50.
Data for compounds disclosed in Indian Patent No. 163 242 are also provided for comparison.

Molecules are shown by their SMILES. ≈ marks a conversion by molar mass, not a printed value. Structures can show the parent of a compound that is named as a salt.

As for `C=C[C@@]1(C)CC(=O)[C@]2(O)[C@@]3(C)[C@@H](O)CCC(C)(C)[C@@H]3[C@H](OC(=O)CCN3CCCCC3)[C@H](OC(=O)COc3ccccc3)[C@@]2(C)O1`, in assay [1], the “IOP-Lowering Effect, % decrease in IOP” value worked out at 31% and the “IOP-Lowering Effect, Duration” value is listed as 300. For `C=C[C@@]1(C)CC(=O)[C@]2(O)[C@@]3(C)[C@@H](O)CCC(C)(C)[C@@H]3[C@H](OC(=O)CCN3CCN(C)CC3)[C@H](OC(=O)COCC)[C@@]2(C)O1`, in assay [1], the “IOP-Lowering Effect, % decrease in IOP” value was 32% and the “IOP-Lowering Effect, Duration” value is > 360.

Turning to `C=C[C@@]1(C)CC(=O)[C@]2(O)[C@@]3(C)[C@@H](O)CCC(C)(C)[C@@H]3[C@H](OC(=O)CCN(C)C)[C@H](OC(=O)COC)[C@@]2(C)O1` [CO(CH2)2 N(CH3)2.2HCl, COCH2 OCH3, 1α,9α-Dihydroxy-6β-(3-N,N-dimethylamino-propionyloxy)-8,13-epoxy-7β-methoxy-acetoxy-labd-14-en-11-one], in the assay with Guinea pig atrium, a half-maximal response (EC50) required 0.024 µg/mL. Still for that read-out and setting: for `C=C[C@@]1(C)CC(=O)[C@]2(O)[C@@]3(C)[C@@H](O)CCC(C)(C)[C@@H]3[C@H](OC(=O)COC)[C@H](OC(=O)CCN(C)C)[C@@]2(C)O1` [COCH2 OCH3, CO(CH2)2 NMe2.HCl, 1α,9α-Dihydroxy-7β-(3-N,N-dimethylamino-propionyloxy)-8,13-epoxy-6β-methoxyacetoxy-labd-14-en-11-one] the value was 0.77 µg/mL; for `C=C[C@@]1(C)CC(=O)[C@]2(O)[C@@]3(C)[C@@H](O)CCC(C)(C)[C@@H]3[C@H](OC(=O)CCN3CCOCC3)[C@H](OC(=O)COCC)[C@@]2(C)O1` [drawing 34], 0.044 µg/mL (≈ 0.0739 µM); for `C=C[C@@]1(C)CC(=O)[C@]2(O)[C@@]3(C)[C@@H](O)CCC(C)(C)[C@@H]3[C@H](OC(=O)CN3CCCCC3)[C@H](O)[C@@]2(C)O1` [drawing 36, reference compound], 1.8 µg/mL (≈ 3.65 µM). In the case of `C=C[C@@]1(C)CC(=O)[C@]2(O)[C@@]3(C)[C@@H](O)CCC(C)(C)[C@@H]3[C@H](OC(=O)CCN3CCOCC3)[C@H](OC(=O)COCC)[C@@]2(C)O1` [drawing 39], in assay [1], the “IOP-Lowering Effect, % decrease in IOP” value was 31% and the “IOP-Lowering Effect, Duration” value is > 360. In the case of `C=C[C@@]1(C)CC(=O)[C@]2(O)[C@@]3(C)[C@@H](O)CCC(C)(C)[C@@H]3[C@H](OC(=O)CN3CCCCC3)[C@H](O)[C@@]2(C)O1` [drawing 41, reference compound], the “IOP-Lowering Effect, % decrease in IOP” value in assay [1] was “Not active”. Regarding `C=C[C@@]1(C)CC(=O)[C@]2(O)[C@@]3(C)[C@@H](O)CCC(C)(C)[C@@H]3[C@H](OC(=O)CCN3CCOCC3)[C@H](O)[C@@]2(C)O1` [reference compound], in the assay on Guinea pig atrium, the “Guinea pig atrium EC50” value is listed as “Not active”.
